Assays:
Format in all cases: cell-based
LoVo-Dox = experiment: SRB colorimetric cell growth inhibition assay, LoVo-Dox (MDR); conditions: Homo sapiens, LOVO-DOX; for GI50: GI=growth inhibition, read-out: GI50 LOVO-DOX; for CC50: LC=cell killing (cytotoxic effect), read-out: LC50 LOVO-DOX; for IC (TGI): TGI=total growth inhibition (cytostatic effect), read-out: TGI LOVO-DOX
Method in brief: (§1)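 After uninterrupted treatment, cultures are fixed and stained with sulforhodamine B, and absorbance reflects cell growth and viability. Each value represents the average of triplicate wells with SD.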

IGROV = experiment: SRB colorimetric cell growth inhibition assay, IGROV; conditions: Homo sapiens, IGROV; for GI50: GI=growth inhibition, read-out: GI50 IGROV; for CC50: LC=cell killing (cytotoxic effect), read-out: LC50 IGROV; for IC (TGI): TGI=total growth inhibition (cytostatic effect), read-out: TGI IGROV
Method in brief: as §1

SK-MEL-28 = experiment: SRB colorimetric cell growth inhibition assay, SK-MEL-28; conditions: Homo sapiens, SK-MEL-28, MEL-28; for GI50: GI=growth inhibition, read-out: GI50 MEL-28; for CC50: LC=cell killing (cytotoxic effect), read-out: LC50 MEL-28; for IC (TGI): TGI=total growth inhibition (cytostatic effect), read-out: TGI MEL-28
Method in brief: as §1

LoVo = experiment: SRB colorimetric cell growth inhibition assay, LoVo; conditions: Homo sapiens, LoVo; for GI50: GI=growth inhibition, read-out: GI50 LOVO; for CC50: LC=cell killing (cytotoxic effect), read-out: LC50 LOVO; for IC (TGI): TGI=total growth inhibition (cytostatic effect), read-out: TGI LOVO
Method in brief: as §1

SKOV-3 = experiment: SRB colorimetric cell growth inhibition assay, SKOV-3; conditions: Homo sapiens; for GI50: SK-OV-3, SKOV-3, GI=growth inhibition, read-out: GI50 SKOV-3; for CC50 / IC (TGI): SK-OV-3, SKOV-3; for CC50: LC=cell killing (cytotoxic effect), read-out: LC50 SKOV-3; for IC (TGI): TGI=total growth inhibition (cytostatic effect), read-out: TGI SKOV-3
Method in brief: (§2)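 SRB colorimetric readout of cell growth/viability in 96-well format. Means ± SD from triplicate wells; GI (growth inhibition), TGI (total growth inhibition, cytostatic) and LC (cell killing, cytotoxic) parameters derived.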

H-MEC-1 = experiment: SRB colorimetric cell growth inhibition assay, H-MEC-1; conditions: Homo sapiens, HMEC-1, H-MEC-1; for GI50: GI=growth inhibition; for IC (TGI): TGI=total growth inhibition (cytostatic effect), read-out: TGI H-MEC-1
Method in brief: as §2

[1] = as above; conditions: human, H-MEC-1 cells, H-MEC-1; LC=cell killing (cytotoxic effect); read-out: LC50 H-MEC-1
Method in brief: as §2

HT-29 = experiment: SRB colorimetric cell growth inhibition assay, HT-29; conditions: Homo sapiens, HT-29, HT-29; for GI50: GI=growth inhibition, read-out: GI50 HT-29; for CC50: LC=cell killing (cytotoxic effect), read-out: LC50 HT-29; for IC (TGI): TGI=total growth inhibition (cytostatic effect), read-out: TGI HT-29
Method in brief: as §1

SK-BR-3 = experiment: SRB colorimetric cell growth inhibition assay, SK-BR-3; conditions: Homo sapiens, SK-BR-3, SK-BR-3; for GI50: GI=growth inhibition, read-out: GI50 SK-BR-3; for CC50: LC=cell killing (cytotoxic effect), read-out: LC50 SK-BR-3; for IC (TGI): TGI=total growth inhibition (cytostatic effect), read-out: TGI SK-BR-3
Method in brief: as §1

PANC-1 = experiment: SRB colorimetric cell growth inhibition assay, PANC-1; conditions: Homo sapiens, PANC-1, PANC-1; for GI50: GI=growth inhibition, read-out: GI50 PANC-1; for CC50: LC=cell killing (cytotoxic effect), read-out: LC50 PANC-1; for IC (TGI): TGI=total growth inhibition (cytostatic effect), read-out: TGI PANC-1
Method in brief: as §1

IGROV-ET = experiment: SRB colorimetric cell growth inhibition assay, IGROV-ET (ET-743 resistant); conditions: Homo sapiens, IGROV-ET; for GI50: GI=growth inhibition, read-out: GI50 IGROV-ET; for CC50: LC=cell killing (cytotoxic effect), read-out: LC50 IGROV-ET; for IC (TGI): TGI=total growth inhibition (cytostatic effect), read-out: TGI IGROV-ET
Method in brief: as §1

A-549 = experiment: SRB colorimetric cell growth inhibition assay, A-549; conditions: Homo sapiens, A549, A-549; for GI50: GI=growth inhibition, read-out: GI50 A-549; for CC50: LC=cell killing (cytotoxic effect), read-out: LC50 A-549; for IC (TGI): TGI=total growth inhibition (cytostatic effect), read-out: TGI A-549
Method in brief: as §1

K-562 = experiment: SRB colorimetric cell growth inhibition assay, K-562; conditions: Homo sapiens, K562, K-562; for GI50: GI=growth inhibition, read-out: GI50 K-562; for CC50: LC=cell killing (cytotoxic effect), read-out: LC50 K-562; for IC (TGI): TGI=total growth inhibition (cytostatic effect), read-out: TGI K-562
Method in brief: as §1

LNCaP = experiment: SRB colorimetric cell growth inhibition assay, LNCaP; conditions: Homo sapiens, LNCaP, LN-caP; for GI50: GI=growth inhibition, read-out: GI50 LN-caP; for CC50: LC=cell killing (cytotoxic effect), read-out: LC50 LN-caP; for IC (TGI): TGI=total growth inhibition (cytostatic effect), read-out: TGI LN-caP
Method in brief: as §1

DU-145 = experiment: SRB colorimetric cell growth inhibition assay, DU-145; conditions: Homo sapiens, DU-145, DU-145; for GI50: GI=growth inhibition, read-out: GI50 DU-145; for CC50: LC=cell killing (cytotoxic effect), read-out: LC50 DU-145; for IC (TGI): TGI=total growth inhibition (cytostatic effect), read-out: TGI DU-145
Method in brief: as §1

For `COc1cc2ccn3c(c(-c4ccc(OC(=O)[C@H](C)NC(=O)OC(C)(C)C)c(OC)c4)c4c5cc(OC)c(OC(=O)[C@H](C)NC(=O)OC(C)(C)C)cc5oc(=O)c43)c2cc1OC` [Compound 77], which GI50 (LoVo-Dox) is on record?
Its GI50 is 10.2 µM.

And the CC50 (LoVo-Dox)?
Its CC50 is 11.7 µM.

What about the IC (TGI) (LoVo-Dox) of the same compound?
The IC (TGI) was 11.7 µM.

What about the GI50 (IGROV) of the same compound?
The GI50 was 5.92 µM.

And the CC50 (IGROV)?
Its CC50 is 11.7 µM.

And the IC (TGI) (IGROV)?
The IC (TGI) was 8.84 µM.

And the GI50 (SK-MEL-28)?
The GI50 was 3.29 µM.

What about the CC50 (SK-MEL-28) of the same compound?
The CC50 was 11.7 µM.

And the IC (TGI) (SK-MEL-28)?
Its IC (TGI) is 10.1 µM.

And the GI50 (LoVo)?
Its GI50 is 11.7 µM.

What about the CC50 (LoVo) of the same compound?
Its CC50 is 11.7 µM.

What about the IC (TGI) (LoVo) of the same compound?
Its IC (TGI) is 11.7 µM.

What about the GI50 (SKOV-3) of the same compound?
The GI50 was 7.52 µM.

What about the CC50 (SKOV-3) of the same compound?
Its CC50 is 11.7 µM.

And the IC (TGI) (SKOV-3)?
The IC (TGI) was 11.7 µM.

What about the GI50 (H-MEC-1) of the same compound?
The GI50 was 2.71 µM.

And the IC (TGI) (H-MEC-1)?
Its IC (TGI) is 11.7 µM.

And the CC50 [1]?
The CC50 was 11.7 µM.

What about the GI50 (HT-29) of the same compound?
The GI50 was 11.7 µM.

What about the CC50 (HT-29) of the same compound?
Its CC50 is 11.7 µM.

And the IC (TGI) (HT-29)?
Its IC (TGI) is 11.7 µM.

And the GI50 (SK-BR-3)?
The GI50 was 3.53 µM.

What about the CC50 (SK-BR-3) of the same compound?
Its CC50 is 11.7 µM.

And the IC (TGI) (SK-BR-3)?
The IC (TGI) was 11.7 µM.

And the GI50 (PANC-1)?
Its GI50 is 4.46 µM.

And the CC50 (PANC-1)?
Its CC50 is 11.7 µM.

And the IC (TGI) (PANC-1)?
Its IC (TGI) is 11.7 µM.

What about the GI50 (IGROV-ET) of the same compound?
Its GI50 is 0.258 µM.

What about the CC50 (IGROV-ET) of the same compound?
Its CC50 is 11.7 µM.

And the IC (TGI) (IGROV-ET)?
Its IC (TGI) is 1.17 µM.

What about the GI50 (A-549) of the same compound?
Its GI50 is 6.69 µM.

And the CC50 (A-549)?
The CC50 was 11.7 µM.

And the IC (TGI) (A-549)?
Its IC (TGI) is 11.7 µM.

And the GI50 (K-562)?
The GI50 was 2.13 µM.

What about the CC50 (K-562) of the same compound?
Its CC50 is 11.7 µM.

And the IC (TGI) (K-562)?
The IC (TGI) was 6.15 µM.

What about the GI50 (LNCaP) of the same compound?
The GI50 was 7.51 µM.

What about the CC50 (LNCaP) of the same compound?
The CC50 was 11.7 µM.

What about the IC (TGI) (LNCaP) of the same compound?
Its IC (TGI) is 11.7 µM.

What about the GI50 (DU-145) of the same compound?
Its GI50 is 0.8 µM.

And the CC50 (DU-145)?
Its CC50 is 11.7 µM.

What about the IC (TGI) (DU-145) of the same compound?
Its IC (TGI) is 3.96 µM.

Which GI50 (LoVo-Dox) does the source give for `COc1cc(-c2c3n(c4c(=O)oc5cc(OC(=O)[C@@H](N)COCc6ccccc6)c(OC)cc5c24)CCc2c-3cc(OC)c(OC)c2OC(=O)[C@@H](N)COCc2ccccc2)ccc1OC(=O)[C@@H](N)COCc1ccccc1` [Compound 66] here?
Its GI50 is 1.91 µM.

And the CC50 (LoVo-Dox)?
The CC50 was 7.12 µM.

And the IC (TGI) (LoVo-Dox)?
The IC (TGI) was 5.56 µM.

And the GI50 (IGROV)?
The GI50 was 1.35 µM.

What about the CC50 (IGROV) of the same compound?
Its CC50 is 6.75 µM.

And the IC (TGI) (IGROV)?
Its IC (TGI) is 3.02 µM.

What about the GI50 (SK-MEL-28) of the same compound?
The GI50 was 1.42 µM.

And the CC50 (SK-MEL-28)?
Its CC50 is 4.55 µM.

What about the IC (TGI) (SK-MEL-28) of the same compound?
The IC (TGI) was 2.55 µM.

And the GI50 (LoVo)?
The GI50 was 2.19 µM.

And the CC50 (LoVo)?
Its CC50 is 7.12 µM.

And the IC (TGI) (LoVo)?
The IC (TGI) was 7.12 µM.

What about the GI50 (SKOV-3) of the same compound?
The GI50 was 2.85 µM.

And the CC50 (SKOV-3)?
Its CC50 is 7.12 µM.

And the IC (TGI) (SKOV-3)?
The IC (TGI) was 6.28 µM.

What about the GI50 (H-MEC-1) of the same compound?
The GI50 was 1.52 µM.

And the IC (TGI) (H-MEC-1)?
The IC (TGI) was 2.73 µM.

What about the CC50 [1] of the same compound?
The CC50 was 4.93 µM.

What about the GI50 (HT-29) of the same compound?
The GI50 was 2.77 µM.

What about the CC50 (HT-29) of the same compound?
Its CC50 is 7.12 µM.

What about the IC (TGI) (HT-29) of the same compound?
The IC (TGI) was 6.77 µM.

What about the GI50 (SK-BR-3) of the same compound?
The GI50 was 0.434 µM.

What about the CC50 (SK-BR-3) of the same compound?
The CC50 was 7.12 µM.

And the IC (TGI) (SK-BR-3)?
Its IC (TGI) is 1.82 µM.

And the GI50 (PANC-1)?
The GI50 was 1.95 µM.

What about the CC50 (PANC-1) of the same compound?
The CC50 was 7.12 µM.

And the IC (TGI) (PANC-1)?
The IC (TGI) was 7.12 µM.

What about the GI50 (IGROV-ET) of the same compound?
The GI50 was 1.22 µM.

And the CC50 (IGROV-ET)?
The CC50 was 6.87 µM.

What about the IC (TGI) (IGROV-ET) of the same compound?
Its IC (TGI) is 2.9 µM.

And the GI50 (A-549)?
The GI50 was 1.86 µM.

What about the CC50 (A-549) of the same compound?
The CC50 was 6.43 µM.

And the IC (TGI) (A-549)?
The IC (TGI) was 3.46 µM.

What about the GI50 (K-562) of the same compound?
The GI50 was 0.982 µM.

And the CC50 (K-562)?
Its CC50 is 7.12 µM.

And the IC (TGI) (K-562)?
The IC (TGI) was 2.8 µM.

And the GI50 (LNCaP)?
Its GI50 is 0.89 µM.

And the CC50 (LNCaP)?
The CC50 was 4.03 µM.

What about the IC (TGI) (LNCaP) of the same compound?
Its IC (TGI) is 1.89 µM.

What about the GI50 (DU-145) of the same compound?
Its GI50 is 1.73 µM.

What about the CC50 (DU-145) of the same compound?
The CC50 was 7.12 µM.

And the IC (TGI) (DU-145)?
The IC (TGI) was 3.65 µM.
